# Assay results: patent US12534439B2, “Xanthohumol derivatives and methods for making and using” (Oregon State University, priority 2021, dated 2026)
# Tested on: HFD-fed C57BL/6J mice
# Assay: Untargeted cortex LC-MS metabolomics
# Assay type: in vivo
# Conditions: cortex of HFD-fed mice
# Experimental: Plasma and Cortex LC-MS Metabolomics. The left and right sides of the cortex were pooled and ground using liquid nitrogen. Cortex samples (approximately 30 mg) were extracted as previously described with slight modifications. Tissues were homogenized with 600 μL of cold 80% acetonitrile with 0.1% formic acid containing 0.2 μg/mL of dopamine-d4 (Sigma-Aldrich, St Louis, MO, USA) and 0.2 μg/mL of chlorpropamide (Sigma-Aldrich, St Louis, MO, USA) using a counter-top bullet blender for 2 min and centrifuged at 20 000 rpm for 10 minutes. Supernatants were transferred to high performance liquid chromatography (HPLC) vials for analysis.
# LC-high-resolution mass spectrometry/MS. Data dependent acquisition in both negative and positive ion mode was conducted using a Shimadzu Nexera UPLC system coupled to an AB SCIEX TripleTOF 5600 mass spectrometer (AB SCIEX, Toronto, Canada). Chromatographic separation was conducted using an Inertsil Phenyl-3 column (4.6×150 mm, 100 Å, 5 μm; GL Sciences, Tokyo, Japan). Spray voltage was −4200 V for negative ion mode and 4500 V for positive ion mode acquisition. The injection volume was 3 μL. Metabolite identifications were performed using Progenesis QI software (V2.4.6911) with METLIN plugin V1.0.6499 (NonLinear Dynamics, United Kingdom). Progenesis QI was used for peak picking, retention time correction, data normalization, peak alignment, and metabolite annotations. Metabolites were detected in both ion modes; the one with the lowest coefficient of variation of the QC was kept.
compound,measurement,value
"COc1cc(O)c(CC=C(C)C)c(O)c1-c1cc(-c2ccc(O)cc2)n(C)n1 [XP, 4-(5-(4-hydroxyphenyl)-1-methyl-1H-pyrazol-3-yl)-5-methoxy-2-(3-methylbut-2-en-1-yl)benzene-1,3-diol]","Ion intensities, Mean: 1,2-DIPALMITOYL-SN-GLYCEROL",1513.84
same,"Ion intensities, Mean: 1-Arachidonoyl-glycerophosphoinositol",546.96
same,"Ion intensities, Mean: 1-Palmitoyl-2-linoleoyl PE",1180.62
same,"Ion intensities, Mean: 2-Pyrrolidinone",1222.06
same,"Ion intensities, Mean: 2′-DEOXYURIDINE 5′-MONOPHOSPHATE",594.66
same,"Ion intensities, Mean: 3-Methyl-L-histidine",518.49
same,"Ion intensities, Mean: 3-PHOSPHO-GLYCERIC ACID",2370.20
same,"Ion intensities, Mean: 5-Acetylamino-6-amino-3-methyluracil",52.73
same,"Ion intensities, Mean: 5-Methylcytidine",9448.98
same,"Ion intensities, Mean: 12-HYDROXYDODECANOIC-ACID",2251.29
same,"Ion intensities, Mean: 20-Hydroxy-PGE2",7093.39
same,"Ion intensities, Mean: 27-Hydroxycholesterol",20090.45
same,"Ion intensities, Mean: ADENOSINE",49823.74
same,"Ion intensities, Mean: ADENOSINE 5′-DIPHOSPHORIBOSE",4312.21
same,"Ion intensities, Mean: ADENOSINE 5′-MONOPHOSPHATE",90459.20
same,"Ion intensities, Mean: ADENOSINE-5′-DIPHOSPHOGLUCOSE",1755.31
same,"Ion intensities, Mean: ADP",3426.97
same,"Ion intensities, Mean: AMINOADIPATE",331.86
same,"Ion intensities, Mean: ASCORBATE",1431.15
same,"Ion intensities, Mean: ASPARTATE",1333.10
same,"Ion intensities, Mean: Acetylcarnitine",12649.68
same,"Ion intensities, Mean: Acetylcholine",1745.95
same,"Ion intensities, Mean: Adenine",1949.85
same,"Ion intensities, Mean: Adenylosuccinate",1016.78
same,"Ion intensities, Mean: Adenylsuccinic acid",3152.34
same,"Ion intensities, Mean: Arachidonic acid",20901.19
same,"Ion intensities, Mean: Arachidonic acid ethyl ester",351.43
same,"Ion intensities, Mean: Arginine",2112.34
same,"Ion intensities, Mean: Aspartic acid",8729.17
same,"Ion intensities, Mean: BILIVERDIN",167.09
same,"Ion intensities, Mean: CARNITINE",14584.14
same,"Ion intensities, Mean: CDP-Ethanolamine",571.19
same,"Ion intensities, Mean: CHENODEOXYCHOLATE",5735.03
same,"Ion intensities, Mean: CITRATE",1682.49
same,"Ion intensities, Mean: CMP",688.26
same,"Ion intensities, Mean: Carnosine",1422.99
same,"Ion intensities, Mean: Choline",8899.36
same,"Ion intensities, Mean: Creatine",89712.34
same,"Ion intensities, Mean: Cysteineglutathione disulfide",1531.40
same,"Ion intensities, Mean: Cytidine",846.95
same,"Ion intensities, Mean: Cytidine 2′,3′-cyclic phosphate",356.88
same,"Ion intensities, Mean: Cytidine diphosphate choline (CDPcholine)",2658.54
same,"Ion intensities, Mean: D-GLUCOSE 6-PHOSPHATE",138.50
same,"Ion intensities, Mean: D-Glucaro-1,4-lactone",1887.47
same,"Ion intensities, Mean: D-RIBOSE 5-PHOSPHATE",136.10
same,"Ion intensities, Mean: DESMOSTEROL",15551.25
same,"Ion intensities, Mean: DIHYDROOROTATE",91.24
same,"Ion intensities, Mean: Deoxycytidine",665.81
same,"Ion intensities, Mean: Deoxyguanosine",2401.12
same,"Ion intensities, Mean: Docosahexaenoic acid",2873.42
same,"Ion intensities, Mean: Docosenamide",20845.53
same,"Ion intensities, Mean: Dodecanedioic acid",333.82
same,"Ion intensities, Mean: ERUCIC ACID",98.90
same,"Ion intensities, Mean: ETHANOLAMINE PHOSPHATE",441.02
same,"Ion intensities, Mean: Ergothioneine",515.38
same,"Ion intensities, Mean: Ethyl nicotinate",81.18
same,"Ion intensities, Mean: GLUTAMIC ACID",9048.31
same,"Ion intensities, Mean: GLUTAMINE",22688.89
same,"Ion intensities, Mean: GUANOSINE 5′-MONOPHOSPHATE",4141.69
same,"Ion intensities, Mean: Glutamate",53559.34
same,"Ion intensities, Mean: Glutathione",232313.32
same,"Ion intensities, Mean: Glycerophosphocholine",124857.55
same,"Ion intensities, Mean: Guanosine monophosphate",845.86
same,"Ion intensities, Mean: HEPTADECANOATE",23.50
same,"Ion intensities, Mean: HISTIDINE",1129.76
same,"Ion intensities, Mean: Homocarnosine",689.23
same,"Ion intensities, Mean: Homoserine",1034.62
same,"Ion intensities, Mean: Hydroxybutyric acid",2833.09
same,"Ion intensities, Mean: Hydroxyphenethylamine",4074.28
same,"Ion intensities, Mean: Hypoxanthine",88.42
same,"Ion intensities, Mean: Hypusine",196.91
same,"Ion intensities, Mean: ISOCITRIC ACID",2051.66
same,"Ion intensities, Mean: ISOLEUCINE",1578.44
same,"Ion intensities, Mean: Indoleacetaldehyde",523.18
same,"Ion intensities, Mean: Inosine",1409.62
same,"Ion intensities, Mean: Inosine 5′-monophosphate (IMP)",5581.09
same,"Ion intensities, Mean: Isostearic acid",1901.95
same,"Ion intensities, Mean: L-2-Amino-5-hydroxypentanoicacid",2343.03
same,"Ion intensities, Mean: L-OLEOYL-RAC-GLYCEROL",2628.37
same,"Ion intensities, Mean: LACTATE",3144.80
same,"Ion intensities, Mean: LAUROYLCARNITINE",277.93
same,"Ion intensities, Mean: LEUKOTRIENE B4",30.73
same,"Ion intensities, Mean: LYSINE",107.27
same,"Ion intensities, Mean: Lathosterol",14569.93
same,"Ion intensities, Mean: Lipoamide",114.97
same,"Ion intensities, Mean: MALATE",1664.52
same,"Ion intensities, Mean: Methionine",2031.63
same,"Ion intensities, Mean: Methylthioadenosine",3521.96
same,"Ion intensities, Mean: Myristoylcarnitine",1303.77
same,"Ion intensities, Mean: N,N-dimethyl-Safingol",578.09
same,"Ion intensities, Mean: N-(1-Deoxy-1-fructosyl) serine",4331.01
same,"Ion intensities, Mean: N-ACETYL-L-ASPARTICACID",25975.80
same,"Ion intensities, Mean: N-ACETYLNEURAMINATE",1670.91
same,"Ion intensities, Mean: N-Acetyl-Glutamic acid",205.45
same,"Ion intensities, Mean: N-Acetyl-L-alanine",1909.11
same,"Ion intensities, Mean: N-Acetylaspartylglutamic acid",2955.57
same,"Ion intensities, Mean: N-Acetylglutamine",519.28
same,"Ion intensities, Mean: N-Acetylisoputreanine",153.75
same,"Ion intensities, Mean: N-Acetyllactosamine",273.32
same,"Ion intensities, Mean: N-Linoleoyl GABA",54.12
same,"Ion intensities, Mean: N-Methyl-Glutamate",2772.85
same,"Ion intensities, Mean: N-a-Acetyl-Arginine",270.36
same,"Ion intensities, Mean: NAD",1268.92
same,"Ion intensities, Mean: NE,NE,NE-TRIMETHYLLYSINE",3943.68
same,"Ion intensities, Mean: Niacinamide",5120.54
same,"Ion intensities, Mean: Nicotinamide adenine dinucleotide (NAD)",37985.70
same,"Ion intensities, Mean: O-Phosphoethanolamine",302.71
same,"Ion intensities, Mean: Octadecenoic acid",169.48
same,"Ion intensities, Mean: Oleamide",3677.58
same,"Ion intensities, Mean: Oxidized glutathione",4537.22
same,"Ion intensities, Mean: PALMITATE",1211.29
same,"Ion intensities, Mean: PALMITOLEIC ACID",39.36
same,"Ion intensities, Mean: PANTOTHENIC ACID",524.89
same,"Ion intensities, Mean: PETROSELINIC ACID",142.54
same,"Ion intensities, Mean: PHENYLALANINE",2973.73
same,"Ion intensities, Mean: PHENYLETHANOLAMINE",1559.27
same,"Ion intensities, Mean: Phenylpropionylglycine",431.18
same,"Ion intensities, Mean: Phosphocholine",23860.56
same,"Ion intensities, Mean: Phosphodimethyl-ethanolamine",269.92
same,"Ion intensities, Mean: Pipecolic acid",516.02
same,"Ion intensities, Mean: Propionylcarnitine",540.78
same,"Ion intensities, Mean: Pyridoxamine-5′-Phosphate",484.54
same,"Ion intensities, Mean: RAC-GLYCEROL-L-MYRISTATE",283.53
same,"Ion intensities, Mean: S-Adenosylhomocysteine",473.94
same,"Ion intensities, Mean: S-Adenosylmethionine",18868.04
same,"Ion intensities, Mean: SERINE",483.60
same,"Ion intensities, Mean: SUCCINATE",304.14
same,"Ion intensities, Mean: Spermic acid 1",199.76
same,"Ion intensities, Mean: Spermidine",7809.52
same,"Ion intensities, Mean: Sphinganine",23.16
same,"Ion intensities, Mean: Sphinganine 1-phosphate",1966.99
same,"Ion intensities, Mean: Sphingosine",1163.81
same,"Ion intensities, Mean: Stearoylglycerophosphoserine",1831.40
same,"Ion intensities, Mean: Succinyladenosine",217.97
same,"Ion intensities, Mean: TAURINE",6801.22
same,"Ion intensities, Mean: THEOPHYLLINE",18.56
same,"Ion intensities, Mean: TRYPTOPHAN",1355.41
same,"Ion intensities, Mean: Tetradecanedioic acid",115.20
same,"Ion intensities, Mean: Tetrahydrodeoxycortisol",2674.78
same,"Ion intensities, Mean: Threoninyl-Alanine",295.96
same,"Ion intensities, Mean: Tyrosine",6818.63
same,"Ion intensities, Mean: URIDINE",1161.25
same,"Ion intensities, Mean: URIDINE 5′-DIPHOSPHOGALACTOSE",1728.73
same,"Ion intensities, Mean: URIDINE-5-MONOPHOSPHATE",3704.01
same,"Ion intensities, Mean: Undecanedicarboxylic acid",219.08
same,"Ion intensities, Mean: Uracil",225.61
same,"Ion intensities, Mean: Uridine 5′-diphosphate",422.30
same,"Ion intensities, Mean: Xanthine",155.79
same,"Ion intensities, Mean: cyclic GMP-AMP",2077.75
same,"Ion intensities, Mean: diethyltoluamide",5.17
same,"Ion intensities, Mean: docosa-hexaenoic acid",1911.88
same,"Ion intensities, Mean: hydroxyhexadecanoyl carnitine",1048.02
same,"Ion intensities, Mean: hydroxyvitamin D3",21210.39
same,"Ion intensities, Mean: sn-glycero-3-Phosphoethanolamine",994.53
